Where two headings read alike, the source gives them in different places.
Assays:
[1] = Text: Discontinue the treatment till it disappears and restart the program. Latisse needs a prescription from a doctor in order to purchase Latisse like you would get any other medication. […] If one develops hypoglycemic symptoms due to any number of reasons, drink a sugar drink, eat a candy, or fruit cocktail.
eyelash hair follicles = assay: Eyelash hair growth / hair follicle transplant after topical application; format: in vivo; conditions: insulin alone, no second hypertrichosis agent
Text: Step 4: Apply selected hair growth therapeutic agent if need be such as minoxidil or prostaglandin derived hair growth promoters which are already approved for hair growth of the eyelashes. […] Apply the clean dressing on the wound if need be.
Step 4: Apply selected hair growth therapeutic agent using PGF 2α, and analogues. Using these hair growing prostaglandins after pretreatment of the eye lids site with insulin results in much more rapid hair growth compared to when applied without insulin.

indolent ulcers = assay: Local insulin on indolent ulcers, wound healing; format: in vivo; conditions: insulin spray on indolent ulcers, unpublished data
Text: We have used insulin for more than a decade to enhance the effectiveness of locally injected therapeutic agents specially cancers with chemotherapeutic agents with remarkable results. Our unpublished data also supports that the insulin spray on indolent ulcers anywhere in the body, including the oral (gums) and nasal cavity. […] Application of insulin soaked cotton swabs (1-3 units in normal saline) after teeth extraction induces rapid healing with reduced pain.

[2] = system: cultured human hair follicles; conditions: cited from earlier work; for Effect on hair follicle growth in the presence of insulin: 10 micrograms/ml insulin present; for Preventing hair follicles from entering a catagen-like state, compared with insulin / Rate of hair follicle growth compared with 10 micrograms/ml insulin: IGF-I 10 ng/ml, IGF-II 100 ng/ml; for Effect on hair follicle growth in the absence of insulin: IGF-I and IGF-II 0.01-100 ng/ml
[3] = system: MCF-7 human breast cancer cells; conditions: MCF-7 cells; cited from earlier work
[4] = in vivo; cited from earlier work

Row | Substance | Effect on hair follicle growth in the presence of insulin [2] | Preventing hair follicles from entering a catagen-like state, compared with insulin [2] | Rate of hair follicle growth compared with 10 micrograms/ml insulin [2] | Effect on hair follicle growth in the absence of insulin [2] | Concentration giving maximum rates of hair follicle growth ([2]; in the absence of insulin) [ng/mL] | further results
1 | Insulin: hormone secreted by beta cells in the islets of Langerhans in the pancreas |  |  |  |  |  | Hypoglycemia ([1]; after application of insulin to the eye lids): none of our cases developed hypoglycemia; Darkening of the eye lids ([1]; insulin alone): did not result in any appreciable darkening of the eye lids; Wound healing, uptake and growth of hair follicle transplant (eyelash hair follicles): enough to facilitate rapid wound healing along with uptake and growth of hair follicle transplant; Wound healing (indolent ulcers): accelerated wound healing; Concentration giving maximum rates of hair follicle growth ([2]; follicles maintained in medium containing insulin): 10 micrograms/ml; Effect of insulin on hair follicle growth ([2]; range of 0.01 to 100 micrograms/ml): stimulated hair follicle growth in a dose-dependent manner; Increase of the cytotoxic effect of methotrexate [3]: up to 10,000 fold
2 | IGF-II: Insulin-like growth factor II | no significant effect on hair follicle growth | more potent than insulin | unable to stimulate hair follicle growth to the same extent as insulin | stimulated hair follicle growth in a dose-dependent manner | 100 | 
3 | Regular (R) humulin or novolin: Short-acting insulin |  |  |  |  |  | Duration of action [4]: 5 to 8 h; Onset of action [4]: 30 to 60 min; Peak effect [4]: 2 to 5 h
4 | Growth hormone: growth hormone (somatotropin) |  |  |  | no effect on hair follicle growth or morphology |  | 
5 | IGF-I: insulin-like growth factor 1, a growth hormone believed to work with androgens to initiate and maintain hair growth | no significant effect on hair follicle growth | more potent than insulin | identical | stimulated hair follicle growth in a dose-dependent manner | 10 | 

Source: patent publication US20110217260A1, “METHOD OF ENHANCING EYELASH AND EYE BROW HAIR GROWTH” (priority 2010, published 2011)
